{"source": "patent US7807679B2", "about": "“Piperazine derivatives and their use in controlling pests” (Syngenta Crop Protection, Inc., priority 2004, dated 2010)", "data": [{"compound": "O=C1N(Cc2cnc(Cl)s2)CCN1c1ccc(F)cc1N1CCN(C/C=C/c2ccc(Cl)cc2)CC1", "note": "[Example 5, 1-(2-{4-[(E)-3-(4-Chloro-phenyl)-allyl]-piperazin-1-yl}-4-fluoro-phenyl)-3-(2-chloro-thiazol-5-ylmethyl)-imidazolidin-2-one]", "values": [{"measurement": "melting point", "result": "72 to 77", "unit": "°C"}]}, {"compound": "COCCCNC(=O)Nc1ccc(F)cc1N1CCN(C/C=C/c2ccc(Cl)cc2)CC1", "note": "[Example 4, 1-(2-{4-[(E)-3-(4-chloro-phenyl)-allyl]-piperazin-1-yl}-4-fluoro-phenyl)-3-(3-methoxy-propyl)-urea]", "values": [{"measurement": "melting point", "result": "86 to 90", "unit": "°C"}]}, {"compound": "CN(C(=O)c1ccnc(Cl)c1)c1ccccc1N1CCN(C/C=C/c2ccc(Cl)cc2)CC1", "note": "[Example 2, 2-chloro-N-(2-{4-[(E)-3-(4-chloro-phenyl)-allyl]-piperazin-1-yl}-phenyl)-N-methyl-isonicotinamide]", "values": [{"measurement": "melting point", "result": "117 to 120", "unit": "°C"}]}, {"compound": "O=C(Nc1cnc(Cl)nc1N1CCN(C/C=C/c2ccc(OC(F)(F)F)cc2)CC1)c1ccnc(Cl)c1", "note": "[Example 7, 2-chloro-N-(2-chloro-4-{4-[(E)-3-(4-trifluoromethoxy-phenyl)-allyl]-piperazin-1-yl}-pyrimidin-5-yl)-isonicotinamide]", "values": [{"measurement": "melting point", "result": "210 to 211", "unit": "°C"}]}]}
